# Source: ChEMBL document CHEMBL4616610, “Discovery of a novel unsymmetrical structural class of HCV NS5A inhibitors with low picomolar antiviral activity” (Bioorg Med Chem Lett, 2020)
# Assays:
# Nonstructural protein 5A = target: T1, Nonstructural protein 5A (Hepatitis C virus, UniProt Q5L478); experiment: Inhibition of NS5A in Hepatitis C virus subtype 1b replicon infected in human HuH7 cells assessed as reduction in viral replication; assay type: cell-based; details: huh-7
# T1 sequence (Q5L478 whole entry): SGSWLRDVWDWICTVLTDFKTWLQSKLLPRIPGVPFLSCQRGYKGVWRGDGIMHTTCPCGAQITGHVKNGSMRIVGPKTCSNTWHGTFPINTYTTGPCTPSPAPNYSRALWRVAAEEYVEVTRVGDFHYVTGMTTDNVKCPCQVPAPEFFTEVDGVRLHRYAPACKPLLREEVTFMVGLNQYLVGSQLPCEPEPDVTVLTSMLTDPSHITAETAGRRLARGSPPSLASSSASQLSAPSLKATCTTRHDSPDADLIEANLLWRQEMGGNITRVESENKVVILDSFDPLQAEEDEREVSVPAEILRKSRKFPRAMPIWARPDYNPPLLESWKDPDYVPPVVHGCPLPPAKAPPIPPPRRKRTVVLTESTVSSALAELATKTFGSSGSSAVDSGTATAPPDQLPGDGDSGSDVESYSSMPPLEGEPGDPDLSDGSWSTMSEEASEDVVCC
# [1] = Inhibition of NS5A Q30K mutant in Hepatitis C virus subtype 1a replicon infected in human HuH7 cells assessed as reduction in viral replication; assay type: cell-based; details: Huh-7
# [2] = Inhibition of NS5A Q30K mutant in Hepatitis C virus subtype 1a replicon assessed as reduction in viral replication using Ac-Asp-Glu-Asp (EDANS)-Glu-Glu-Abu-(COO) Ala-Ser-Lys (DABCYL)-NH2 as substrate measured after 72 hrs by FRET assay
# [3] = Inhibition of NS5A in Hepatitis C virus subtype 1b replicon assessed as reduction in viral replication using Ac-Asp-Glu-Asp (EDANS)-Glu-Glu-Abu-(COO) Ala-Ser-Lys (DABCYL)-NH2 as substrate measured after 72 hrs by FRET assay
smiles,measurement,setting,value
CCCC(=O)Nc1ccc(-c2ccc(-c3c[nH]c([C@@H]4CCCN4C(=O)[C@H](NC(=O)N4CCCC4)c4ccccc4)n3)cc2)cc1,EC50,Nonstructural protein 5A,Not Active
CCCC(=O)Nc1ccc(-c2ccc(-c3c[nH]c([C@@H]4CCCN4C(=O)[C@H](NC(=O)c4ccccc4NC(=O)OCc4ccccc4)c4ccccc4)n3)cc2)cc1,EC50,Nonstructural protein 5A,Not Active
CCCC(=O)Nc1ccc(-c2ccc(-c3c[nH]c([C@@H]4CCCN4C(=O)[C@H](NC(=O)c4ccc(NC(=O)OCc5ccccc5)cc4)c4ccccc4)n3)cc2)cc1,EC50,Nonstructural protein 5A,Not Active
COC1CCN(C(=O)Nc2ccc(-c3ccc(-c4c[nH]c([C@@H]5CCCN5C(=O)[C@H](NC(=O)N5CC[C@@H](NC(=O)OCc6ccccc6)C5)c5ccccc5)n4)cc3)cc2)CC1,EC50,[1],4.7 nM
CCCC(=O)Nc1ccc(-c2ccc(-c3c[nH]c([C@@H]4CCCN4C(=O)[C@H](NC(=O)CCCCCCc4ccccc4)c4ccccc4)n3)cc2)cc1,EC50,Nonstructural protein 5A,Not Active
CCCC(=O)Nc1ccc(-c2ccc(-c3c[nH]c([C@@H]4CCCN4C(=O)[C@H](NC(=O)N4CCC[C@H](NC(=O)OCc5ccccc5)C4)c4ccccc4)n3)cc2)cc1,EC50,Nonstructural protein 5A,Not Active
CCCC(=O)Nc1ccc(-c2ccc(-c3c[nH]c([C@@H]4CCCN4C(=O)[C@H](NC(=O)c4ccccc4)c4ccccc4)n3)cc2)cc1,EC50,Nonstructural protein 5A,Not Active
CCCC(=O)Nc1ccc(-c2ccc(-c3c[nH]c([C@@H]4CCCN4C(=O)[C@H](NC(=O)CCCc4ccccc4)c4ccccc4)n3)cc2)cc1,EC50,Nonstructural protein 5A,Not Active
COC(=O)N[C@H](C(=O)N1CCC[C@H]1c1ncc(-c2ccc(-c3ccc(-c4cnc([C@@H]5CCCN5C(=O)[C@@H](NC(=O)OC)C(C)C)[nH]4)cc3)cc2)[nH]1)C(C)C [DACLATASVIR],EC50,[2],1230 nM
same,EC50,[3],0.009 nM
